Laboratory results reported in US11739051B2 (ALEXION PHARMA INTERNATIONAL OPERATIONS UNLIMITED COMPANY, priority 2018, dated 2023).

What was measured:
WD patients = conditions: once daily dosing in WD patients; cited from earlier work
[1] = Crystallinity by X-ray powder diffraction (XRPD); type: physicochemical
Method: Crystallinity was analyzed by X-ray powder diffraction (XRPD) using a Cu-anode (45 kV/40 mA), a Kα-1 monochromator and silicon-based position-sensitive 1D detector (Malvern Panalytical, X'Celerator™). The 2-theta range was 2-35° using a scan speed of 0.02°/s and a step size of 0.017°. Slow spinning sample holders were used. […] Each sample was smeared out using a Teflon bar, producing a flat powdered surface on zero background wafers of silicon (Si). The measurements were performed using a programmable incident divergence slit.
The crystallinity was evaluated using Panalytical HighScore Plus™ software (The HighScore suite; T. Degen, M. Sadki, E. Bron, U. König, G. Nénert; Powder Diffraction, Volume 29, Supplement S2, December 2014, pp S13-S18). This method is based on the following steps: 1) Calculation of the net area of the signals from the crystalline part of the sample. This area is defined as “AREAcryst.” 2) Calculation of the net total area, that is, area from the amorphous “humps” plus the net peak area from step 1. This area is defined as “AREAtotal.” In the calculation of above areas, an automatic correction of the background is made by using data collected for an empty sample holder. 3) The percent crystallinity of the sample is calculated as: (AREAcryst/AREAtotal)*100.
XRPD crystallinity results for each batch are reported Table 1.

[2] = Particle size distribution (PSD) by LALLS; type: physicochemical; conditions: for Dx (10)/μm: 10th percentile of particle size, paraffin oil dispersion; for Dx (50)/μm: 50th percentile of particle size; for Dx (90)/μm: 90th percentile of particle size; for >100 μm (%): percentage of particles greater than 100 μm; for <2 μm (%): percentage of particles less than 2 μm
Excerpt: As used herein, the term “Dx(10)/μm” refers to the 10th percentile of particle size (D10) measured in micrometers (μm). As used herein, the terms “Dx(50)/μm” or “median particle size” refer to the 50th percentile particle size (D50). As used herein, the term “Dx(90)/μm” refers to the 90th percentile of particle size (D90).
As used herein, the term “<2 μm (%)” refers to the percentage (%) of particles that are less than 2 μm. As used herein, the term “>100 μm (%)” refers to the percentage (%) of particles that are greater than 100 μm. As used herein, the percentage of particles refers to the percentage based on the population, or number, of particles.
The sample dispersion medium was paraffin oil. […] This was repeated until a stable reading was obtained.
The PSD measurements were done using the following settings: background measurement time, 20 seconds(s); sample measurement time, 20 s; dispersant refractive index, 1.45; particle refractive index, N/A (Fraunhofer), absorption, N/A (Fraunhofer); stirrer speed, 2500 rpm; analysis model: general purpose.

[3] = Specific surface area (SSA) by BET; type: physicochemical; conditions: N2 adsorption
Method: As used herein, the ten “SSA (m^2/g)” refers to specific surface area (SSA) measured in square meters (m^2) per gram (g). SSA was measured by BET according to the method described in Example 4.
Specific Surface Area (SSA) was analyzed by BET on a surface area analyzer (Gemini 2375™ from Micromeritics Instrument Corp.). […] Each sample was filled into a glass tube and “degassed” at 30° C. for 1 h under continuous N2 (g) flow in order to remove all loosely bound molecules on the external surface and from potential channels in the material. Simultaneously, the saturation pressure for the liquid nitrogen used was determined. After weighing the degassed samples, the degassed samples were inserted into the measuring position at −196° C. (boiling point for liquid nitrogen), evacuated and then exposed to a range of partial pressures basically covering the whole range from almost zero to close to 1 under adsorption mode. The lower pressures were used for SSA determination. Higher pressures were used for potential micro pore determination. In order to ascribe the right amount of nitrogen to the substances, the free volume in the tubes was measured with helium gas prior to nitrogen adsorption. The appropriate thickness values for the adsorbed layer (above the point where no absorption took place in micro pores anymore) was determined from a t-plot and subsequently used to correct the calculation by separating the adsorbed nitrogen molecules into either absorbed into potential pore like structures (the “micro pore volume”) or adsorbed onto actual external surface.

[4] = Stability of crystalline particles after forced degradation at 40° C. and 75% relative humidity (HPLC impurities); type: physicochemical
Method: Stability analysis was performed on crystalline particles after forced degradation at 40° C. and 75% relative humidity over 3 days.

[5] = Day 3, 40° C. / 75% RH, listed as B-2
[6] = Day 3, 40° C. / 75% RH, listed as B-3
[7] = Day 3, 40° C. / 75% RH, listed as B-4

For Bis-choline tetrathiomolybdate [BC-TTM], which “Cu control and improvement of hepatic function” value (WD patients) is on record?
The value was “demonstrated to provide Cu control and improvement of hepatic function”.

Which “Estimated Crystallinity (%)” value ([1]; AREAcryst/AREAtotal*100, listed as B-2) does the source give for “bis-choline tetrathiomolybdate [Batch B-2]” here?
Its value is 93%.

What about the “Dx (10)/μm” value ([2]; listed as B-2) of the same substance?
Its value is 5.4 μm.

And the “Dx (50)/μm” value ([2]; listed as B-2)?
The value was 20.5 μm.

And the “Dx (90)/μm” value ([2]; listed as B-2)?
The value was 59.7 μm.

And the “>100 μm (%)” value ([2]; listed as B-2)?
Its value is 0.1%.

What about the “<2 μm (%)” value ([2]; listed as B-2) of the same substance?
Its value is 4.3%.

And the “SSA (m^2/g)” value ([3]; listed as B-2)?
The value was 0.65 m^2/g.

And the “Mo2S6O2 dimer (area %)” value ([4]; Day 1, 40° C. / 75% RH, listed as B-2)?
The value was 0.07 area %.

What about the “Mo2S6O2 dimer (area %)” value ([4]; Day 2, 40° C. / 75% RH, listed as B-2) of the same substance?
Its value is 0.13 area %.

What about the “Mo2S6O2 dimer (area %)” value [4, 5] of the same substance?
Its value is 0.19 area %.

What about the “TM2 (area %)” value [4, 5] of the same substance?
The value was 0.13 area %.

What about the “TM3 (area %)” value [4, 5] of the same substance?
The value was 0.54 area %.

What about the “Total impurities (area %)” value [4, 5] of the same substance?
The value was 0.97 area %.

What about the “TM2 (area %)” value ([4]; Initial, listed as B-2) of the same substance?
Its value is 0.01 area %.

And the “TM3 (area %)” value ([4]; Initial, listed as B-2)?
The value was 0.52 area %.

What about the “Total impurities (area %)” value ([4]; Initial, listed as B-2) of the same substance?
The value was 0.56 area %.

Which “Estimated Crystallinity (%)” value ([1]; AREAcryst/AREAtotal*100, listed as B-3) does the source give for “bis-choline tetrathiomolybdate [Batch B-3]” here?
The value was 95%.

And the “Dx (10)/μm” value ([2]; listed as B-3)?
Its value is 10.5 μm.

And the “Dx (50)/μm” value ([2]; listed as B-3)?
The value was 30.0 μm.

What about the “Dx (90)/μm” value ([2]; listed as B-3) of the same substance?
The value was 54.9 μm.

What about the “>100 μm (%)” value ([2]; listed as B-3) of the same substance?
Its value is 0.0%.

And the “<2 μm (%)” value ([2]; listed as B-3)?
Its value is 2.6%.

And the “SSA (m^2/g)” value ([3]; listed as B-3)?
The value was 0.38 m^2/g.

What about the “Mo2S6O2 dimer (area %)” value ([4]; Day 1, 40° C. / 75% RH, listed as B-3) of the same substance?
The value was <0.05 area %.

And the “Mo2S6O2 dimer (area %)” value ([4]; Day 2, 40° C. / 75% RH, listed as B-3)?
The value was 0.07 area %.

And the “Mo2S6O2 dimer (area %)” value [4, 6]?
The value was 0.11 area %.

What about the “TM2 (area %)” value [4, 6] of the same substance?
The value was 0.10 area %.

And the “TM3 (area %)” value [4, 6]?
The value was 0.43 area %.

What about the “Total impurities (area %)” value [4, 6] of the same substance?
Its value is 0.68 area %.

And the “TM2 (area %)” value ([4]; Initial, listed as B-3)?
Its value is 0.01 area %.

What about the “TM3 (area %)” value ([4]; Initial, listed as B-3) of the same substance?
Its value is 0.42 area %.

And the “Total impurities (area %)” value ([4]; Initial, listed as B-3)?
Its value is 0.44 area %.

For “bis-choline tetrathiomolybdate [Batch B-4]”, which “Estimated Crystallinity (%)” value ([1]; AREAcryst/AREAtotal*100, listed as B-4) is on record?
The value was 93%.

What about the “Dx (10)/μm” value ([2]; listed as B-4) of the same substance?
The value was 3.6 μm.

What about the “Dx (50)/μm” value ([2]; listed as B-4) of the same substance?
The value was 12.7 μm.

What about the “Dx (90)/μm” value ([2]; listed as B-4) of the same substance?
The value was 47.6 μm.

What about the “>100 μm (%)” value ([2]; listed as B-4) of the same substance?
The value was 0.0%.

What about the “<2 μm (%)” value ([2]; listed as B-4) of the same substance?
The value was 6.6%.

What about the “SSA (m^2/g)” value ([3]; listed as B-4) of the same substance?
The value was 1.16 m^2/g.

And the “Mo2S6O2 dimer (area %)” value ([4]; Day 1, 40° C. / 75% RH, listed as B-4)?
Its value is 0.06 area %.

What about the “Mo2S6O2 dimer (area %)” value ([4]; Day 2, 40° C. / 75% RH, listed as B-4) of the same substance?
The value was 0.23 area %.

What about the “Mo2S6O2 dimer (area %)” value [4, 7] of the same substance?
The value was 0.38 area %.

What about the “TM2 (area %)” value [4, 7] of the same substance?
Its value is 0.19 area %.

What about the “TM3 (area %)” value [4, 7] of the same substance?
The value was 0.23 area %.

And the “Total impurities (area %)” value [4, 7]?
Its value is 1.01 area %.

What about the “Mo2S6O2 dimer (area %)” value ([4]; Initial) of the same substance?
Its value is <0.05 area %.

What about the “TM2 (area %)” value ([4]; Initial, listed as B-4) of the same substance?
The value was 0.01 area %.

What about the “TM3 (area %)” value ([4]; Initial, listed as B-4) of the same substance?
Its value is 0.14 area %.

What about the “Total impurities (area %)” value ([4]; Initial, listed as B-4) of the same substance?
The value was 0.20 area %.
